According to patent US10738056B2 (Aduro BioTech, Inc., priority 2017, dated 2020):

Assays:
[1] = biological target: Human cGAS amino acids 155-522 (Homo sapiens (Human), UniProt Q8N884); assay: cGAS biochemical activity assay (ATP remaining, Kinase-Glo Max luminescence); conditions: human cGAS 155-522, ATP remaining (Kinase-Glo Max); read-out: cGAS IC50
[2] = system: MCP-1/CCL2 secretion by Trex1-KO BMM; assay: Inhibition of MCP-1/CCL2 secretion by Trex1-KO bone marrow-derived macrophages; type: cell-based, mice; design: key to BMM IC50 M (MCP-1): A: an IC50 value less than 5 μM; B: an IC50 value between 5 and 20 μM; where an IC50 value could not be calculated from the data; conditions: MCP-1 secretion
Protocol: A cellular assay can be used to asses the compounds of the invention for their ability to inhibit cytokine production. Bone marrow macrophages harvested from mice can be used to determine response as a function of compound concentration.
The inhibition of secreted cytokine was measured in bone marrow-derived macrophages (BMMs) from diseased mice to evaluate the potency of compounds of the invention as described herein. […] To derive bone marrow macrophages, marrow extracted from the femurs and tibias were harvested from Trex1-KO mice was cultured in growth media supplemented with macrophage colony-stimulating factor (M-CSF). Differentiated BMM were harvested and frozen for subsequent experimentation. For treatment with compound C1089 (see Example 13), a frozen stock of Trex1-KO BMM was thawed and 1×10^5 cells were plated in 96 well format. BMMs were treated with a dilution series of C1089 and incubated overnight at 37° C. 5% CO2, at which point cellular supernatants were harvested and stored at −80° C. for subsequent analysis. The media used for this dilution series was without FBS. Remaining cells were evaluated for viability using Cell Titer Glo 2.0 kit according to the manufacturer instructions. BMM supernatants were evaluated for the secreted cytokine […] (RANTES/CCL5) or for secreted cytokine monocyte chemoattractant protein 1 (MCP-1/CCL2) using cytometric bead array mouse Flex Set kits (BD Biosciences). Cytokine concentration was calculated from a standard curve and normalized to vehicle (DMSO) treated cells.

[3] = system: cGAS/STING pathway in THP1 cells; assay: THP1 cell-based cGAS/STING pathway activity assay (IRF-3-linked luciferase reporter); conditions: Homo sapiens, THP-1
How it was run: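 THP1 cells carrying an IRF-3-driven luciferase reporter were read across a range of compound concentrations, and IC50 values were derived from these concentration responses; the assay upper limit was 100 μM.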

Sequence of Human cGAS amino acids 155-522 (Q8N884 157-522): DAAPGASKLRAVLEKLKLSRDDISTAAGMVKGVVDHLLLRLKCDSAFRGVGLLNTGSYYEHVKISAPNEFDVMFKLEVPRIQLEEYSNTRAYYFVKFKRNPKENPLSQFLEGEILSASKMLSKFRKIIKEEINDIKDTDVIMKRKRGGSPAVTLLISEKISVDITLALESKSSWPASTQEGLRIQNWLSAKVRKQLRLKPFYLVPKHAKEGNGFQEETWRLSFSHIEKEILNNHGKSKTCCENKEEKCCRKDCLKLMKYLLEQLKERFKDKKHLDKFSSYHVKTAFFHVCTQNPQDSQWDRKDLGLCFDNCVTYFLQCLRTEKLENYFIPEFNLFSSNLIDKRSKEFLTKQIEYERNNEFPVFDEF

Row | IC50 [1] [µM] | BMM IC50 M (MCP-1) [2] | IC50 [3] [µM] | SMILES
1 | 20 to 250 | C | – | COc1ccccc1NC(=O)c1c(C)[nH]c2c(C3CCCC3)c(C(F)(F)F)nn2c1=O [Compound A1052, 3-cyclopentyl-N-(2-methoxyphenyl)-5-methyl-7-oxo-2-(trifluoromethyl)-4,7-dihydropyrazolo[1,5-a]pyrimidine-6-carboxamide]
2 | < 20 | – | 20 to 100 | Cc1[nH]c2c(-c3ccccc3)c(C(F)(F)F)nn2c(=O)c1C(=O)NS(=O)(=O)Cc1ccccc1 [Compound A1112, N-(benzylsulfonyl)-5-methyl-7-oxo-3-phenyl-2-(trifluoromethyl)-4,7-dihydropyrazolo[1,5-a]pyrimidine-6-carboxamide]
3 | < 20 | – | > 100 | Cc1[nH]c2c(-c3ccccc3)c(C(F)(F)F)nn2c(=O)c1-c1nnc(C2CCCCN2S(C)(=O)=O)o1 (stereo not shown) [Compound D1056, 5-methyl-6-(5-(1-(methylsulfonyl)piperidin-2-yl)-1,3,4-oxadiazol-2-yl)-3-phenyl-2-(trifluoromethyl)pyrazolo[1,5-a]pyrimidin-7(4H)-one]
4 | 20 to 250 | – | < 20 | COc1cccc2c(-c3c(C)[nH]c4c(-c5ccccc5)c(C(F)(F)F)nn4c3=O)n[nH]c12 [Compound C1026, 6-(7-methoxy-1H-indazol-3-yl)-5-methyl-3-phenyl-2-(trifluoromethyl)pyrazolo[1,5-a]pyrimidin-7(4H)-one]
5 | < 20 | – | > 100 | COc1cccc2oc(-c3c(C(=O)O)[nH]c4c(-c5ccccc5)c(C#N)nn4c3=O)nc12 [Compound C1249, 2-cyano-6-(4-methoxybenzo[d]oxazol-2-yl)-7-oxo-3-phenyl-4,7-dihydropyrazolo[1,5-a]pyrimidine-5-carboxylic acid]
6 | < 20 | – | 20 to 100 | COc1ccc(C(=O)O)c2oc(-c3c(C)[nH]c4c(-c5ccccc5)c(C(F)(F)F)nn4c3=O)nc12 [Compound C1130]
7 | < 20 | – | > 100 | Cc1[nH]c2c(-c3ccccc3)c(C(F)(F)F)nn2c(=O)c1C(=O)NS(=O)(=O)C1CCCCC1 [Compound A1124, N-(cyclohexylsulfonyl)-5-methyl-7-oxo-3-phenyl-2-(trifluoromethyl)-4,7-dihydropyrazolo[1,5-a]pyrimidine-6-carboxamide]
8 | 20 to 250 | – | 20 to 100 | Cc1[nH]c2c(-c3ccccc3)c(C(F)(F)F)nn2c(=O)c1C(=O)Nc1ccccc1Cl [Compound A1033, N-(2-chlorophenyl)-5-methyl-7-oxo-3-phenyl-2-(trifluoromethyl)-4,7-dihydropyrazolo[1,5-a]pyrimidine-6-carboxamide]
9 | < 20 | – | > 100 | Cc1nn2c(=O)c(C(=O)Nc3ccccc3S(C)(=O)=O)c(C)[nH]c2c1-c1ccccc1 [Compound A1106, 2,5-dimethyl-N-(2-(methylsulfonyl)phenyl)-7-oxo-3-phenyl-4,7-dihydropyrazolo[1,5-a]pyrimidine-6-carboxamide]
10 | < 20 | – | 20 to 100 | COc1cccc(S(=O)(=O)NC(=O)c2c(C)[nH]c3c(-c4ccccc4)c(C(F)(F)F)nn3c2=O)c1 [Compound A1125, N-((3-methoxyphenyl)sulfonyl)-5-methyl-7-oxo-3-phenyl-2-(trifluoromethyl)-4,7-dihydropyrazolo[1,5-a]pyrimidine-6-carboxamide]
11 | < 20 | – | > 100 | Cc1[nH]c2c(-c3ccccc3)c(C(F)(F)F)nn2c(=O)c1-c1nc2c(=O)[nH]ccc2o1 [Compound C1116, 2-(5-methyl-7-oxo-3-phenyl-2-(trifluoromethyl)-4,7-dihydropyrazolo[1,5-a]pyrimidin-6-yl)oxazolo[4,5-c]pyridin-4(5H)-one]
12 | < 20 | – | > 100 | Cc1[nH]c2c(-c3ccccc3)c(C(F)(F)F)nn2c(=O)c1C(=O)Nc1ccccc1S(C)(=O)=O [Compound A1083, 5-methyl-N-(2-(methylsulfonyl)phenyl)-7-oxo-3-phenyl-2-(trifluoromethyl)-4,7-dihydropyrazolo[1,5-a]pyrimidine-6-carboxamide]
13 | < 20 | – | > 100 | COc1cccc2oc(-c3c(COCC(=O)O)[nH]c4c(-c5ccccc5)c(C(F)(F)F)nn4c3=O)nc12 [Compound C1146, 2-((6-(4-methoxybenzo[d]oxazol-2-yl)-7-oxo-3-phenyl-2-(trifluoromethyl)-4,7-dihydropyrazolo[1,5-a]pyrimidin-5-yl)methoxy)acetic acid]
14 | < 20 | – | < 20 | Cc1[nH]c2c(-c3ccccc3)c(C(F)(F)F)nn2c(=O)c1C(=O)Nc1cccc2c1OCC2 [Compound A1101, N-(2,3-dihydrobenzofuran-7-yl)-5-methyl-7-oxo-3-phenyl-2-(trifluoromethyl)-4,7-dihydropyrazolo[1,5-a]pyrimidine-6-carboxamide]
15 | < 20 | – | > 100 | COC1CCCN(c2nnc(-c3c(C)[nH]c4c(-c5ccccc5)c(C(F)(F)F)nn4c3=O)o2)C1 (stereo not shown) [Compound D1027, 6-(5-(3-methoxypiperidin-1-yl)-1,3,4-oxadiazol-2-yl)-5-methyl-3-phenyl-2-(trifluoromethyl)pyrazolo[1,5-a]pyrimidin-7(4H)-one]
16 | < 20 | – | 20 to 100 | Cc1[nH]c2c(-c3ccccc3)c(C#N)nn2c(=O)c1-c1nc2c(N)cccc2o1 [Compound C1223, 6-(4-aminobenzo[d]oxazol-2-yl)-5-methyl-7-oxo-3-phenyl-4,7-dihydropyrazolo[1,5-a]pyrimidine-2-carbonitrile]
17 | < 20 | – | < 20 | COc1ccc2[nH]c(-c3c(C)[nH]c4c(-c5ccccc5)c(C(F)(F)F)nn4c3=O)nc2c1 [Compound C1016, 6-(5-methoxy-1H-benzo[d]imidazol-2-yl)-5-methyl-3-phenyl-2-(trifluoromethyl)pyrazolo[1,5-a]pyrimidin-7(4H)-one]
18 | < 20 | – | 20 to 100 | Cc1[nH]c2c(-c3ccccc3)c(C(F)(F)F)nn2c(=O)c1C(=O)Nc1cc[nH]n1 [Compound A1076, 5-methyl-7-oxo-3-phenyl-N-(1H-pyrazol-3-yl)-2-(trifluoromethyl)-4,7-dihydropyrazolo[1,5-a]pyrimidine-6-carboxamide]
19 | 20 to 250 | – | > 100 | Cc1cc(NC(=O)c2c(C)[nH]c3c(-c4ccccc4)c(C(F)(F)F)nn3c2=O)n(C)n1 [Compound A1073, N-(1,3-dimethyl-1H-pyrazol-5-yl)-5-methyl-7-oxo-3-phenyl-2-(trifluoromethyl)-4,7-dihydropyrazolo[1,5-a]pyrimidine-6-carboxamide]
20 | < 20 | – | > 100 | COc1ccnc2oc(-c3c(C)[nH]c4c(-c5ccccc5)c(C(F)(F)F)nn4c3=O)nc12 [Compound C1058, 6-(7-methoxyoxazolo[5,4-b]pyridin-2-yl)-5-methyl-3-phenyl-2-(trifluoromethyl)pyrazolo[1,5-a]pyrimidin-7(4H)-one]
21 | < 20 | – | < 20 | COc1cccc2oc(-c3c(C)[nH]c4c(-c5ccccc5)c(C)nn4c3=O)nc12 [Compound C1042, 6-(4-methoxybenzo[d]oxazol-2-yl)-2,5-dimethyl-3-phenylpyrazolo[1,5-a]pyrimidin-7(4H)-one]
22 | < 20 | – | 20 to 100 | Cc1cc(NC(=O)c2c(C)[nH]c3c(-c4ccccc4)c(C(F)(F)F)nn3c2=O)[nH]n1 [Compound A1081, 5-methyl-N-(3-methyl-1H-pyrazol-5-yl)-7-oxo-3-phenyl-2-(trifluoromethyl)-4,7-dihydropyrazolo[1,5-a]pyrimidine-6-carboxamide]
23 | < 20 | – | > 100 | Cc1[nH]c2c(-c3ccccc3)c(C(F)(F)F)nn2c(=O)c1-c1nnc(C2COCCN2S(C)(=O)=O)o1 (stereo not shown) [Compound D1047, 5-methyl-6-(5-(4-(methylsulfonyl)morpholin-3-yl)-1,3,4-oxadiazol-2-yl)-3-phenyl-2-(trifluoromethyl)pyrazolo[1,5-a]pyrimidin-7(4H)-one]
24 | > 250 | – | < 20 | COc1cccc2oc(-c3c(C)[nH]c4c(-c5ccc(F)cc5)c(C(F)(F)F)nn4c3=O)nc12 [Compound C1107, 3-(4-fluorophenyl)-6-(4-methoxybenzo[d]oxazol-2-yl)-5-methyl-2-(trifluoromethyl)pyrazolo[1,5-a]pyrimidin-7(4H)-one]
25 | 20 to 250 | – | > 100 | Cc1[nH]c2c(-c3ccccc3)c(C(F)(F)F)nn2c(=O)c1C(=O)Nc1ccn(CCO)n1 [Compound A1118, N-(1-(2-hydroxyethyl)-1H-pyrazol-3-yl)-5-methyl-7-oxo-3-phenyl-2-(trifluoromethyl)-4,7-dihydropyrazolo[1,5-a]pyrimidine-6-carboxamide]
26 | < 20 | – | > 100 | Cc1[nH]c2c(-c3ccccc3)c(C(F)(F)F)nn2c(=O)c1-c1nc2ncccc2o1 [Compound C1030, 5-methyl-6-(oxazolo[4,5-b]pyridin-2-yl)-3-phenyl-2-(trifluoromethyl)pyrazolo[1,5-a]pyrimidin-7(4H)-one]
